# Source: patent US9868763B2, “Modulators of protease activated receptors” (The University of Queensland, priority 2011, dated 2018)
# Experiments:
# PAR2 [1] = target: T1, PAR2 (Homo sapiens, UniProt P55085); assay: Colonocyte modulation: intracellular calcium mobilization in HT29 cells; format: cell-based; design: endogenous in cells; host or cells: HT29 (human colorectal adenocarcinoma); conditions: HT29 colonocytes, 15 min before 2Furoyl-LIGRLO-NH2
# T1 sequence (P55085 26-397): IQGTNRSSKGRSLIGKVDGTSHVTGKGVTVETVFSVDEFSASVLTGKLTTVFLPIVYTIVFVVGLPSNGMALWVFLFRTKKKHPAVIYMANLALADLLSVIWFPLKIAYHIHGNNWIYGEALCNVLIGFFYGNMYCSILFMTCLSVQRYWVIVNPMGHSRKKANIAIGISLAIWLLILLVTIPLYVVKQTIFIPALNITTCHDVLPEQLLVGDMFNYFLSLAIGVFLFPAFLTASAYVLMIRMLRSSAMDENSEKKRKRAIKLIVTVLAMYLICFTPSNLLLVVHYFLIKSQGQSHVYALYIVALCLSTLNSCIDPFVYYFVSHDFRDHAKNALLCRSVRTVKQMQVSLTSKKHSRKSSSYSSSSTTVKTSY
# Procedure: Human colorectal adenocarcinoma (HT29) cells were incubated with a calcium binding dye ([…]) buffer for 1 h at 37° C. […] Intracellular calcium mobilization was measured by differences in fluorescence plotted against corresponding antagonist concentrations, enabling the determination of antagonist potency.
# [2] = test system: 2furoyl-LIGRLO-NH2-induced paw oedema; assay: PAR2 agonist-induced paw oedema; format: in vivo, Wistar rat; conditions: s.c.; 52 10 mg/kg, ENMD-1068 100 mg/kg; agonist 350 μg/paw
# Procedure: The methods used are based on those previously described (Kelso, E. B., et al. Arthritis Rheum 2007, 56, 765-71; Kelso, E. B., et al. J Pharmacol Exp Ther 2006, 316, 1017-24; and Vergnolle, N. J Immunol 1999, 163, 5064-9). Male Wistar rats (n=3 per group) are used. Briefly, rats are given either 5 or 10 mg/kg of a compound of the present invention (p.o. via gavage in olive oil, approx. 500 μL, weight adjusted). Control animals receive only olive oil (500 μL p.o.). Two hours later, the PAR2 agonist 2-furoyl-LIGRLO (350 μg/paw in saline, 100 μL) is injected into the plantar surface (i.pl.) of the right paw pad using a 30 G needle. The left paw acts as a control, receiving saline only. Paw thickness and width are measured after 30 minutes and hourly using digital calipers (World Precision Instruments, USA) and swelling is calculated in area (mm^2; thickness multiplied by width) and expressed as a percentage change from baseline of each individual paw.
# Based on previous methods (Kelso E B et al., J Pharmacol Exp Ther 2006, 316(3):1017-24; Suen J Y et al., Br J Pharmacol 2011, doi: 10.1111/j.1476-5381.2011.01610.x.), PAR2 antagonist 52 (10 mg/kg s.c.; n=4), ENMD-1068 (100 mg/kg s.c.; n=4) or vehicle control (DMSO s.c.; n=2) were administered to male Wistar rats. Baseline paw thickness and width were measured using digital calipers (World Precision Instruments, USA) expressed in area (mm^2; thickness×width). Fifteen minutes later, 2Furoyl-LIGLRO-NH2 (350 μg/paw in 100 μL saline) was injected into of the right hind paw pad (intraplantar, i.pl.). The left hind paw acted as a control, receiving saline only. In a separate experiment, vehicle (500 μL olive oil) versus PAR2 antagonist 52 (10 mg/kg p.o. in 500 μL olive oil) only were administered orally to two groups of rats (4 per group). Two hours later, β-tryptase (human recombinant lung, 20 μg in 100 μL saline) was injected into the right hind paw pad (vehicle in left for control) of all animals in each group. In all experiments, paw swelling was measured and expressed in area (mm^2; thickness×width) and plotted as % change from baseline of each individual paw.
# [3] = test system: human monocyte derived macrophages (HMDMs); assay: Palmitic acid stimulation of human monocyte derived macrophages; format: cell-based
# Procedure: To investigate if PAR2 is specifically linked to macrophage inflammation, the effect of palmitic acid on mRNA levels of PARs on human monocyte derived macrophages (HMDMs) was measured (FIG. 12). […] The increase of PAR2 mRNA in HMDM in the presence of palmitic acid was dose-dependent (FIG. 12B). Fold change in PAR2 was calculated relative to untreated sample. FIGS. 12C and D illustrate that palmitic acid stimulates proinflammition cytokines, IL-6 and IL-8, secretion from HMDM. Error bars are means±SEM; *P<0.05, **P<0.01, ***P<0.001.
# MIN6 beta cells = assay: Glucose-stimulated insulin secretion (GSIS); format: cell-based, mouse; conditions: 52 as pre-treatment before 2f-LIGRLO-NH2
# Procedure: Rat pancreas and mouse MIN6 beta cells were cultured in DMEM (25 mM glucose) supplemented with 15% fetal calf serum, 10 U/mL penicillin, 10 U/mL streptomycin, 2 mM L-glutamine and […] 2-mercaptoethanol. MIN6 beta cells were passaged and harvested using non-enzymatic cell dissociation solution (Sigma-Aldrich). Glucose-stimulated insulin secretion (GSIS) was performed as described next. MIN6 beta cells were seeded at 0.8×106 mL in a 96-well plate and cultured for 48 h. Cells were washed twice with glucose-free Krebs buffer (NaCl 119 mM, KCl 4.74 mM, CaCl2 2.54 mM, MgCl2 1.19 mM, KH2PO4 1.19 mM, NaHCO3 25 mM, HEPES (pH 7.4) 10 mM and 0.05% BSA). Cells were pre-treated with compound 52 for 30 min with Krebs buffer supplemented with 2.5 mM glucose. After incubation, cells were washed twice with glucose-free Krebs buffer. Glucose (2.5 mM and 25 mM) and compounds were added at specified concentration and incubated for 1 h. Supernatants were collected and insulin concentrations were determined by ELISA (Abeam).
# PAR2 [4] = target: T2, PAR2 (Mus musculus, UniProt P55086); assay: Intracellular calcium mobilization in MIN6 beta cells; format: cell-based; conditions: concentration-dependent
# T2 construct: endogenous in cells; host or cells: MIN6 (mouse pancreatic beta cell line)
# T2 sequence (P55086 26-399): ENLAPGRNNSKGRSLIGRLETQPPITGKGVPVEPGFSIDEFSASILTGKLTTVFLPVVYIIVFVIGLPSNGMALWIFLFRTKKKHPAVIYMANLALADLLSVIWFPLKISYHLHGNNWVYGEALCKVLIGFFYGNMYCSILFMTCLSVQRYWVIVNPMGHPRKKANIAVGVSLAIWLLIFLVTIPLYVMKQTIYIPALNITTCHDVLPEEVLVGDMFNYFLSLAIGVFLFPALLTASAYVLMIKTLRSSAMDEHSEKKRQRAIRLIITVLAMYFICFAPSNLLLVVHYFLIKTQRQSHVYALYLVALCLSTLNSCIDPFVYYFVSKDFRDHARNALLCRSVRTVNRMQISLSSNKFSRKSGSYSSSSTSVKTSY
# Procedure: Results: Pathogenesis of pancreatic dysfunction is linked to chronic nutritional surplus and elevated fatty acids, so in vivo and in vitro effects of compound 52 were evaluated on rat pancreas and mouse MIN6 beta cells. […] PAR2 agonists and compound 52 were further evaluated in vitro for glucose-stimulated insulin secretion (GSIS) and intracellular calcium mobilization in mouse MIN6 beta cells.
molecule,measurement,setting,value
"CC(C)CC(=O)N1CCN(C(=O)CCCCCN)CC1 [ENMD-1068, N1-3-methylbutyryl-N4-6-aminohexanoyl-piperazine, reference compound]",IC50,PAR2 [1],5 mM
same,paw oedema induced by 2furoyl-LIGRLO-NH2,[2],had no effect
CCCCCCCCCCCCCCCC(=O)O [palmitic acid],IL-6 and IL-8 secretion from HMDM,[3],stimulates
same,increase in mRNA concentrations of PAR2,"[3]; HMDM, concentration dependent, relative to untreated",< 20 fold
2f-LIGRLO-NH2 [reference compound],glucose-stimulated insulin secretion,MIN6 beta cells,inhibited glucose stimulated insulin sensitivity
same,intracellular calcium release in MIN6 beta cells,PAR2 [4],activated intracellular calcium release
